Experimental data from patent US12595269B2, “Morpholine-like monoamine releasers” (Solvonis Therapeutics Ireland Holdings Limited, priority 2022, dated 2026).

System: extracellular dopamine (DA), serotonin (5-HT), and noradrenaline (NE) levels in the nucleus accumbens
Assay: In vivo microdialysis of monoamines in rat nucleus accumbens after intraperitoneal administration
Design: species or system Sprague Dawley rats
Details: rat NAcc microdialysis, IP
Experimental: Methods and Procedure: This study was conducted in compliance with previously described procedures to assure data integrity, adherence to GLP regulations, and standard preclinical study and surgery procedures. The in vivo microdialysis technique was applied to measure the over-time variations of DA, 5-HT, and NE extracellular (EC) concentrations in conscious, freely-moving Sprague Dawley rats. Levels of the neurotransmitters in microdialysis samples were determined using LC-MS/MS analysis. The experiment was also conducted with MDMA, which was used for comparative purposes.
As it relates to cannula implantation, the rats were anesthetized with isoflurane 4% in oxygen (2-2.5 L/min), then the isoflurane concentration 2-2.5% was maintained via a nose cone adapted to the stereotaxic apparatus. The rats were treated with meloxicam (0.2 mg/kg, subcutaneously, sc; Meloxidolor) and amoxicilline (150 mg/kg, sc, Betamox LA). The skull was then shaved and disinfected. Rats were then placed in a stereotaxic apparatus for small animals. One vertical guide cannula was inserted through a 1 mm hole drilled on the exposed skull. Coordinates—with respect to bregma—to target specific brain areas, followed indications from stereotaxic atlas of the rat brain. Specifically a guide cannula (MAB 4.12.IC, Agn Tho's AB, Lidingo, Sweden) was inserted in the NAcc (anteroposterior+1.6; lateral −1.6; dorsoventral −6.0). The guide cannula was then secured with dental cement and 2-4 screws. At the end of the surgery the animal was isolated in a single cage during recovery, for a period of at least one week, during which animal health conditions were checked twice daily and the weight recorded twice a week. Animals continued to be housed singly throughout the experiment. One day before the experiment the cannula stylet was removed and a microdialysis probe with a dialyzing length of 2 mm (MAB 4.12.2 Cu, Agn Tho's AB, Lidingo, Sweden) was inserted. Probes can be re-used 2 times for 2 experimental sessions after appropriate cleaning with fresh milliQ water.
Post-surgery, the rats were maintained in a heating chamber prior to waking up in order to avoid hypothermia that could be caused by anaesthesia. 5 mL of physiologic solution was subcutaneously administered immediately after surgery, and once/day for 2-3 days, if signs of dehydration are noticed. Meloxicam (Meloxidolor) 0.2 mg/kg was again administered subcutaneously the day after surgery as well as after 48h after surgery together with Amoxicilline Long Acting (Betamox LA) 150 mg/kg. Health status and body weight was checked every day during the first week.
The animals were treated with test compounds described herein, MDMA, or their vehicle (saline) according to a Latin square design over 5 separate experimental days (one day/week). The treatments were administered in a volume of 1 mL/kg intraperitoneally.
On the day of the experiment, each animal was taken into the laboratory in its home cage. Inlet tubing of the probe was attached to a dual quartz-lined two channel liquid swivel mounted on a low mass spring counterbalance arm which, in turn, was connected to a gas-tight syringe on a microinfusion pump. […] An equilibration period of about two hours of perfusion was allowed before collecting samples. Following the equilibration period, 4 basal samples were collected for each experimental animal followed by further 10 post-treatment samples. Samples were collected every 20 minutes (up to 3 hours and 20 minutes post-treatment) by means of a refrigerated auto-sampler (Univentor 820 Microsampler, Agn tho's, Sweden) maintained at +8° C. At the end of all experimental sessions, 2 μL of 0.1% methylene blue solution was injected through the microdialysis probe, animals were euthanized, and their brains removed to confirm the correct probe-position.
The concentrations of DA, 5-HT and NE in CSF samples were determined using an optimized method based on LC-MS/MS analysis. […]

## Clc1ccc(C23CNC(CO2)C3)cc1Cl (centres unmarked) [522A, 1-(3,4-dichlorophenyl)-2-oxa-5-azabicyclo[2.2.1]heptane]
20 min post-administration
  5HT level relative to baseline levels (100%): 100%
  DA level relative to baseline levels (100%): 100%
  NE level relative to baseline levels (100%): 130%
40 min post-administration
  5HT level relative to baseline levels (100%): 380%
  DA level relative to baseline levels (100%): 160%
  NE level relative to baseline levels (100%): 150%
60 min post-administration
  5HT level relative to baseline levels (100%): 480%
  DA level relative to baseline levels (100%): 185%
  NE level relative to baseline levels (100%): 160%
200 min post-administration
  5HT level relative to baseline levels (100%): 200%
  DA level relative to baseline levels (100%): 125%
  NE level relative to baseline levels (100%): 125%

## CNC(C)Cc1ccc2c(c1)OCO2 (centres unmarked) [MDMA, reference compound]
20 min post-administration
  5HT level relative to baseline levels (100%): 130%
  DA level relative to baseline levels (100%): 120%
  NE level relative to baseline levels (100%): 120%
40 min post-administration
  5HT level relative to baseline levels (100%): 2150%
  DA level relative to baseline levels (100%): 400%
  NE level relative to baseline levels (100%): 500%
60 min post-administration
  DA level relative to baseline levels (100%): 560%
  NE level relative to baseline levels (100%): 500%
200 min post-administration
  5HT level relative to baseline levels (100%): 900%
  DA level relative to baseline levels (100%): 300%
  NE level relative to baseline levels (100%): 300%
